Measurements reported in patent publication US6576662B2, “Compounds having anticancer activity : process for their preparation and pharmaceutical compositions containing them” (Dr. Reddy's Laboratories Limited, priority 2000, dated 2003).
Like-named read-outs stand apart in the source and are kept apart here.

Columns and labels:
U251 = experiment: in vitro anti-cancer screen, Sulforhodamine B method; type: cell-based, human; details: CNS: U251, 48 h incubation, read-out: GROWTH INHIBITION (GI 50)
Experimental: (§1) Each test compound was screened against a battery of cell lines representing eight different types of cancers. In a typical procedure, 1×10^4 cells were seeded into each well of 96 well plate in 100 μL volume of RPMI 1640 medium containing antibiotics and 10% FCS.
(§2) The plates were incubated at 37° C. in presence of CO2. After 24 h, test compounds were evaluated at five 10 fold dilutions ranging from 100 to 0.01 μM. To each test well 100 μL of test compound solution was added and medium with vehicle was added to control wells and the plates were further incubated. After 48 h of incubation, plates were terminated by Sulforhodamine B method.
(§3) The optical density which is proportional to protein mass, is then-read by automated spectrophotometric plate reader at a wavelength of 515 nm.

A498 = experiment: as above; type: cell-based, human; details: RENAL: A498, 48 h incubation, read-out: GROWTH INHIBITION (GI 50)
Experimental: as §1, §2, §3

MCF-7/ADR = experiment: as above; type: cell-based, human; details: BREAST: MCF-7/ADR, 48 h incubation, read-out: GROWTH INHIBITION (GI 50)
Experimental: as §1, §2, §3

H522 = experiment: as above; type: cell-based, human; details: LUNG: H522, 48 h incubation, read-out: GROWTH INHIBITION (GI 50)
Experimental: as §1, §2, §3

DU145 = experiment: as above; type: cell-based, human; details: PROSTATE: DU145, 48 h incubation, read-out: GROWTH INHIBITION (GI 50)
Experimental: as §1, §2, §3

SW-620 = experiment: as above; type: cell-based, human; details: COLON: SW-620, 48 h incubation, read-out: GROWTH INHIBITION (GI 50)
Experimental: as §1, §2, §3

M14 = experiment: as above; type: cell-based, human; details: MELANOMA: M14; 48 h incubation; read-out: GROWTH INHIBITION (GI 50)
Experimental: as §1, §2, §3

SKOV-3 = experiment: as above; type: cell-based, human; details: OVARIAN: SKOV-3, 48 h incubation, read-out: GROWTH INHIBITION (GI 50)
Experimental: as §1, §2, §3

UACC62 = experiment: as above; type: cell-based, human; details: Homo sapiens, UACC-62; MELANOMA: UACC62; 48 h incubation; read-out: GROWTH INHIBITION (GI 50)
Experimental: as §1, §2, §3

HT29 = experiment: as above; type: cell-based, human; details: Homo sapiens, HT-29; COLON: HT29; 48 h incubation; read-out: GROWTH INHIBITION (GI 50)
Experimental: as §1, §2, §3

PA1 = experiment: as above; type: cell-based, human; details: Homo sapiens, PA-1; OVARIAN: PA1; 48 h incubation; read-out: GROWTH INHIBITION (GI 50)
Experimental: as §1, §2, §3

MCF7 = experiment: as above; type: cell-based, human; details: Homo sapiens; BREAST: MCF7; 48 h incubation; read-out: GROWTH INHIBITION (GI 50)
Experimental: as §1, §2, §3

OVCAR = experiment: in vitro anti-cancer screen, Sulforhodamine B method; type: cell-based; details: Homo sapiens; OVARIAN: OVCAR; 48 h incubation; read-out: GROWTH INHIBITION (GI 50)
Experimental: as §1, §2, §3

ACHN = experiment: as above; type: cell-based; details: Homo sapiens; RENAL: ACHN; 48 h incubation; read-out: GROWTH INHIBITION (GI 50)
Experimental: as §1, §2, §3

PC-3 = experiment: as above; type: cell-based; details: Homo sapiens; PROSTATE: PC-3; 48 h incubation; read-out: GROWTH INHIBITION (GI 50)
Experimental: as §1, §2, §3

tumor cell lines = details: cited from earlier work
Human lymphocytes = experiment: Lymphocyte proliferation, tritiated thymidine incorporation; type: cell-based; details: Concentration 1 μM; human lymphocytes with Phytohemagglutitin A
Experimental: Human lymphocytes were isolated from whole blood by using Ficoll Hypaque Plus (Amersham). On day one, 1 million lymphocytes were seeded into each well of 96 well plate in 100 μL volume of RPMI 1640 medium containing 10% FCS and Phytohemagglutitin A at 1 μg/well concentration. Plates were incubated at 37° C. in CO2 incubator for 24 h. Test compounds at various concentrations were added to test wells and only medium with vehicle was added to control wells. After 48 h of incubation […] of tritiated thymidine was added to each well. After 24 h of thymidine addition the cells were harvested and the incorporated radioactivity was determined. Stimulation Index (SI) was calculated using the formula, [formula]
A^T=Average CPM of treated wells,
A^C=Average CPM of control wells.

Compound	GI50 (U251)	GI50 (A498)	GI50 (MCF-7/ADR)	GI50 (H522)	GI50 (DU145)	GI50 (SW-620)	GI50 (M14)	GI50 (SKOV-3)	GI50 (U251; Homo sapiens, U-251)	GI50 (UACC62)	GI50 (HT29)	GI50 (MCF-7/ADR; Homo sapiens, NCI/ADR-RES)	GI50 (H522; Homo sapiens, NCI-H522)	GI50 (PA1)	GI50 (DU145; Homo sapiens, DU-145)	GI50 (SW-620; Homo sapiens)	GI50 (SKOV-3; Homo sapiens, SK-OV-3)	GI50 (MCF7)	melting point	GI50 (PC-3)	also measured
C=C1CCC2C(C)(COC(C)=O)C(OC(C)=O)CCC2(C)C1CC(NCc1ccc(OC)cc1)C1=CCOC1=O (stereo not shown) [Example 3, 3,19-Diacetyl-14-deoxy-12-(N-4-methoxybenzylamino)andrographolide]	8 µM	0.18 µM	5 µM	0.18 µM	8 µM	3.5 µM	5.5 µM	0.15 µM	–	–	–	–	–	–	–	–	–	–	–	–	–
C=C1CCC2[C@]3(C)COC(C)(c4ccccc4)O[C@@H]3CC[C@]2(C)[C@H]1CC(C1=CCOC1=O)N1CCCC1C(=O)OC (stereo partly shown) [Example 23, 14-Deoxy-12-(O-methylprolino)-3,19-O-(1-phenylethylidene)andrographolide]	–	–	–	–	–	–	–	–	2 µM	2 µM	3 µM	2 µM	15 µM	1 µM	11 µM	2 µM	4 µM	4 µM	141 to 143 °C	2 µM	GI50 (OVCAR): 1 µM; GI50 (ACHN): 13 µM
CC(=O)OCC1(C)C(OC(C)=O)CCC2(C)C(CC(Sc3ccccc3)C3=CCOC3=O)C3(CCC12)CO3 (stereo not shown) [Example 70, 3,19-Diacetyl-14-deoxy-8,17-epoxy-12-phenylthio andrographolide]	7 µM	4 µM	8 µM	7 µM	2 µM	4 µM	3 µM	4 µM	–	–	–	–	–	–	–	–	–	–	–	–	–
C=C1CCC2[C@]3(C)COC(C)(c4ccccc4)OC3CC[C@]2(C)[C@H]1CC(NC(Cc1ccccc1)C(=O)OC)C1=CCOC1=O (stereo partly shown) [Example 22, 14-Deoxy-12-(O-methylphenylalanino)-3,19-O-(1-phenylethylidene)andrographolide]	–	–	–	–	–	–	–	–	3 µM	3 µM	3 µM	2 µM	20 µM	1.4 µM	12 µM	3 µM	4 µM	3 µM	171.6 to 171.9 °C	2 µM	GI50 (OVCAR): 1.4 µM; GI50 (ACHN): 14 µM
C=C1CCC2[C@](C)(CC[C@@H](O)[C@@]2(C)CO)C1/C=C/C1=CCOC1=O (stereo partly shown) [14-deoxy-11,12-didehydroandrographolide]	–	–	–	–	–	–	–	–	–	–	–	–	–	–	–	–	–	–	–	–	cytotoxic activity (tumor cell lines): no cytotoxic activity
C=C1CCC2C(C)(COC(C)=O)C(OC(C)=O)CCC2(C)C1CC(Sc1ccccc1)C1=CCOC1=O (stereo not shown) [Example 58, 3,19-Diacetyl-14-deoxy-12-phenylthio andrographolide]	4 µM	0.2 µM	6.5 µM	7 µM	7.5 µM	5 µM	4 µM	6 µM	–	–	–	–	–	–	–	–	–	–	–	–	Stimulation Index (SI) (Human lymphocytes): 99
C=C1CC[C@@H]2[C@](C)(CO[C@@H]3O[C@H](CO)[C@@H](O)[C@H](O)[C@H]3O)CCC[C@@]2(C)[C@@H]1CCC1=CCOC1=O [neoandrographolide]	–	–	–	–	–	–	–	–	–	–	–	–	–	–	–	–	–	–	–	–	cytotoxic activity (tumor cell lines): no cytotoxic activity
C=C1CCC2[C@](C)(CO)[C@H](O)CC[C@]2(C)[C@H]1CC(C1=CCOC1=O)n1cc(F)c(=O)[nH]c1=O (stereo partly shown) [Example 51, 14-Deoxy-12-[N^1-(5-fluorouracil)]andrographolide]	–	–	–	–	–	–	–	–	2 µM	6 µM	10 µM	4 µM	5 µM	3 µM	15 µM	3.5 µM	7 µM	4 µM	155 °C	3 µM	GI50 (A498; Homo sapiens): 2.5 µM
C=C1CCC2[C@](C)(CO)[C@H](O)CC[C@]2(C)[C@H]1CC(NCc1ccccc1)C1=CCOC1=O (stereo partly shown) [Example 18, 12-(N-Benzylamino)-14-deoxy andrographolide]	–	–	–	–	–	–	–	–	0.07 µM	3.5 µM	10 µM	2.5 µM	6 µM	3 µM	10 µM	2.5 µM	4 µM	3 µM	192 °C	2.5 µM	GI50 (A498; Homo sapiens): 2.5 µM; Stimulation Index (SI) (Human lymphocytes): 64
